In PMC3443622 (2012):

Tests used:
ABCG2 [1] = biological target: T1, ABCG2 (Homo sapiens, UniProt Q9UNQ0); assay type: cell-based
T1 sequence (Q9UNQ0 1-655): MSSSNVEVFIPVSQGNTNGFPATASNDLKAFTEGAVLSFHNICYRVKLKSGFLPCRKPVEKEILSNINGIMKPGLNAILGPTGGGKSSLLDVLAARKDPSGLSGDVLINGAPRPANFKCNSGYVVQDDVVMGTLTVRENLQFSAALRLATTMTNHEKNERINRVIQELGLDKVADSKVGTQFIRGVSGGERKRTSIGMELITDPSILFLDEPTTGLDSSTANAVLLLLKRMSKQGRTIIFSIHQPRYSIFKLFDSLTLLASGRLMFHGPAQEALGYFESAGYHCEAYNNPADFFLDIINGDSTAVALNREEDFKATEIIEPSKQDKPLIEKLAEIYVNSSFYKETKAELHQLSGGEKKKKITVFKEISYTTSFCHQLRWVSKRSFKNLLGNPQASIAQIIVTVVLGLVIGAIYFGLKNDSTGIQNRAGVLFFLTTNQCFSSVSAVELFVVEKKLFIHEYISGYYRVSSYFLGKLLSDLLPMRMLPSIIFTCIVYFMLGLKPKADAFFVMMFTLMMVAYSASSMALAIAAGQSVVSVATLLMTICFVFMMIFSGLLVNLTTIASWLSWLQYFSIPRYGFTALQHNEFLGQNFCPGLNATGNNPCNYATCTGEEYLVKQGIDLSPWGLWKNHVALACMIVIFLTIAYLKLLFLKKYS

ABCG2 [2] = biological target: T1, ABCG2; experiment: intracellular accumulation in ABCG2-transfected HEK293 cells; assay type: cell-based

SMILES	ATP-dependent uptake into membrane vesicles (ABCG2 [1])	intracellular accumulation in ABCG2-transfected HEK293 cells (ABCG2 [2])
CN(Cc1cnc2nc(N)nc(N)c2n1)c1ccc(C(=O)N[C@@H](CCC(=O)O)C(=O)O)cc1 [[3H]-methotrexate]	using membrane vesicles to determine the rate of ATP-dependent uptake of [^3H]-methotrexate, another substrate of ABCG2	–
O=C1c2c(O)ccc(O)c2C(=O)c2c(NCCNCCO)ccc(NCCNCCO)c21 [[3H]-mitoxantrone]	–	the intracellular levels of [^3H]-mitoxantrone, a known substrate of ABCG2 was measured in the presence or absence of VKJP1 or VKJP3
